Source: patent US9365534B2, “Arylated camphenes, processes for their preparation and uses thereof” (Yissum Research Development Company of the Hebrew …, priority 2009, dated 2016)
Read-outs that look alike come from different tables or passages of the source.

Key:
[1] = target: T1, human CB1 receptor (Homo sapiens (Human), UniProt P21554); test: Membrane competition binding assay with [3H]-CP 55,940, CHO-CB1 membranes
Excerpt: (§1) The cDNA clones for human HA-tagged CB1 and CB2 receptors were obtained from the Missouri S&T cDNA Resource Center (www.cdna.org) in cloning vector pcDNA3.1+. The vector containing the human CB2 receptor was transfected directly into CHO-KI cells obtained from ATCC. The HA-tagged human CB1 receptor sequence was subcloned into the pef4-V5-HisA vector with Kpn1 and Pme1 restriction enzymes and subsequently transfected into CHO-K1 cells. Cells were clonally isolated by limited dilution and screened by immunocytochemistry for expression of the HA tag.
(§2) Cells were maintained in DMEM/F12 media supplemented with 10% fetal bovine serum (FBS), 100 units/ml penicillin and 100 μg/ml streptomycin and 2 mM L-glutamine. Transfected cell lines were maintained with additional 150 ug/ml zeocin for pEF HA-CB1 transfected cells and 500 ug/ml G-418 for pcDNA HA-CB2 transfected cells (all reagents obtained from Invitrogen).
(§3) Cells were grown to confluence and harvested in ice cold phosphate buffered saline with 5 mM EDTA. Cells were spun at 200×g for 10 min and frozen at −80° C. until required. Cell pellets were thawed with cold 0.32 M sucrose and homogenised with a glass homogeniser. The homogenate was spun at 1000×g for 10 min at 4° C. and the supernatant spun in a Sorvall ultracentrifuge for 30 min at 100,000×g. The pellet was then washed in ice cold water and re-spun twice more. The final pellet was resuspended in 50 mM Tris pH 7.5, 0.5 mM EDTA. Protein concentration was determined using the Dc protein assay kit (BioRad, Hercules, Calif., USA).
(§4) Membranes (5-10 μg) were incubated with radioligand and a range of concentrations of test compounds in binding buffer (50 mM Tris pH 7.4, 5 mM MgCl2, 1 mM EDTA) with 0.5% (w/v) bovine serum albumin (BSA) (ICP Bio, New Zealand), at 30° C. for 60 min. Stock solutions of putative cannabinoid ligands were prepared in dimethyl sulfoxide to a concentration of 10 mM. Six different final concentrations of compounds were used ranging from 50 μM to 0.1 nM. […] Assays were terminated by addition of 2 ml ice cold binding buffer and filtration through GF/C filters (Whatman) pre-soaked in cold binding buffer, followed by two washes in the same buffer.
(§5) Radioactivity was determined by incubation of filters with Irgasafe scintillation fluid (PerkinElmer) and scintillation counting in a Wallac Trilux using Microbeta Trilux software. Data was analysed using the Prism 4.02 programme (GraphPad Software, San Deigo, Calif., USA).
(§6) All data was analyzed using Prism 4.02. For binding data the Ki was determined from IC50 values derived from competition binding data fitted with one site competition non-linear regression analysis by Prism 4.02 using the Kd values reported above.

[2] = target: T2, human CB2 receptor (Homo sapiens (Human), UniProt P34972); test: Membrane [35S]GTPγS binding assay; format: biochemical; details: read-out: [35S]GTPγS Emax
Description: Human CB2 expressing CHO-K1 membranes (5 μg per incubation mixture) were diluted in 50 mM Tris-HCl (pH 7.5) and 0.5 mM EDTA and added to HU compounds in a pre-mixed incubation cocktail. Final incubation concentrations were 55 mM Tris-HCl (pH 7.4), 1 mM EDTA, 100 mM NaCl, 5 mM MgCl2, 0.5% BSA, 50 μM GDP, 0.2 nM [^35S]GTPγS (PerkinElmer) with varied HU compound concentration and 5 μg membrane. Incubations were continued for 60 minutes at 30° C. in a shaking water bath. Assays were terminated by addition of 2 ml ice cold wash buffer (50 mM Tris-HCl, pH 7.5 and 5 mM MgCl2) and filtration through pre-soaked GF/C filters (Whatman), followed by two further washes. adioactivity was determined as described for competition binding assays.
Data was analyzed using the Prism 4.02 programme (GraphPad Software, San Deigo, Calif., USA). IC50 and EC50 values, as determined from sigmoidal curves, were generated from drug concentrations plotted in log scale. […] It is possible to display data as an average, plus or minus the standard error of the mean in log form, however, this is not easily interpreted or compared to other values. It was therefore elected to calculate the 95% confidence interval for the mean value in log form and then convert the lower limit, mean and upper limit into the molar (linear) scale. […] Two-tailed t-tests for statistical analysis between enantiomeric pairs of compounds were performed for CB2 Ki values. The Pearson value, an indication of linearity, was determined for Ki and IC50 or EC50 results obtained for CB2 receptors in binding, cAMP or GTPγS experiments, respectively.

[3] = target: T2, human CB2 receptor; test: cell-based
Excerpt: as §1, §2
(§7) Cells were seeded at a density of 10,000 cells per well in poly-L-lysine treated 96-well culture plates (BD Biosciences). The following day wells were incubated with 40 μl DMEM/F12 containing 0.5% (w/v) BSA and 0.5 mM 3-isobutyl-1-methylxanthine (Sigma-Aldrich) for 30 minutes prior to 15 min stimulation with 50 μM forskolin (Tocris Cookson) and varying concentrations of indicated compounds at 37° C., 5% CO2. Assays were stopped by removal of media and addition of 100% ice cold ethanol. Plates were then frozen for a minimum of two hours before complete evaporation of ethanol. The well contents were then reconstituted in 50 μl cAMP assay buffer (20 mM HEPES pH 7.5 and 5 mM EDTA). Half of the reconstituted sample was transferred to round bottom 96-well plates (Greiner Bio-One GmbH) with 50 μl 0.01% w/v PKA (cAMP dependent protein kinase (Sigma-Aldrich) in 1 mM Na citrate pH 6.5 with 2 mM dithiothreitol) and 25 μl [^3H]-cAMP (at 22 nM in cAMP assay buffer) (GE Healthcare, Life Sciences). This was allowed to equilibrate for 3-18 hours. Following this a charcoal slurry (5% (w/v) activated charcoal and 0.2% (w/v) BSA in cAMP assay buffer) was added to the samples and the plates centrifuged at 3000×g, 4° C. for 5 min. Radioactive counts within the supernatant were then determined as described for competition binding assays.
(§8) pIC50 values were determined from cAMP assays by fitting a sigmoidal concentration response curve using Prism 4.02.

[4] = target: T1, human CB1 receptor; test: cell-based
Excerpt: as §1, §2, §7, §8

[5] = target: T2, human CB2 receptor; test: Membrane competition binding assay with [3H]-CP 55,940, CHO-CB2 membranes
Excerpt: as §1, §2, §3, §4, §5, §6

[6] = CHO, read-out: cAMP Assay CB2 Receptor Emax
[7] = CHO-CB2 cellular membranes, 2.5 nM [3H]-CP 55,940
[8] = whole cells expressing CB2, 50 μM forskolin; read-out: cAMP Assay CB2 Receptor IC50
[9] = whole cells expressing CB1, 50 μM forskolin, read-out: cAMP Assay CB1 Receptor IC50
[10] = CHO-CB1 cellular membranes, 2.5 nM [3H]-CP 55,940, read-out: Competition Binding Assay CB1 Receptor Ki
[11] = read-out: cAMP Assay CB2 Receptor IC50

T1 sequence (P21554 whole entry): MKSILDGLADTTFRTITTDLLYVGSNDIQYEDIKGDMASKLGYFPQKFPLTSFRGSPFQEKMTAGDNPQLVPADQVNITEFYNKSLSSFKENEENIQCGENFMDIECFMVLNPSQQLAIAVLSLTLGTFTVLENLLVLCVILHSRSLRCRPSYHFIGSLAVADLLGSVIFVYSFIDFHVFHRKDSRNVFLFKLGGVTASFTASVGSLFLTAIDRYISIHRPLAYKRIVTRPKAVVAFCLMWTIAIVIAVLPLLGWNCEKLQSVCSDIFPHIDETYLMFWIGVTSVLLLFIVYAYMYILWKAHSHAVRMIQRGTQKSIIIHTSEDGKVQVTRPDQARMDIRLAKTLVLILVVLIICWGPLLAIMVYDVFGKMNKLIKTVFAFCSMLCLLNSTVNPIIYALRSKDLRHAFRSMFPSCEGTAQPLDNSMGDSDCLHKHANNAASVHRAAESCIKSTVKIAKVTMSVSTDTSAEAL

Row | SMILES | Emax [3, 6] | Ki [5, 7] | IC50 [3, 8] | IC50 [4, 9] | Ki [1, 10] | Ki [5] | further results
1 | CCCCCCC(C)(C)c1cc(O)c2c(c1)OC(C)(C)[C@@H]1CC=C(CO)C[C@@H]21 [HU-210, 1,1-Dimethylheptyl-11-hydroxy-tetrahydrocannabinol, reference compound] | – | – | – | – | – | – | Ki ([1]; read-out: Competition Binding Assay CB1 Receptor Ki): 0.00294 µM
2 | CCCCCCC(C)(C)c1cc(OC)c([C@@H]2C=C(CO)[C@@H]3C[C@H]2C3(C)C)c(OC)c1 [HU-308, [(1R,2R,5R)-2-[2,6-dimethoxy-4-(2-methyloctan-2-yl)phenyl]-7,7-dimethyl-4-bicyclo[3.1.1]hept-3-enyl]methanol, reference compound] | 100% | – | – | – | – | – | Emax [2]: 100%; IC50 [4]: > 50 µM; Ki [1]: > 50 µM
3 | CCCCCCC(C)(C)c1cc(OC)c(C2=C[C@H]3CC[C@]2(C)C3(C)C)c(OC)c1 [HU-907, (1R,4R)-2-(2,6-dimethoxy-4-(2-methyloctan-2-yl)phenyl)-1,7,7-trimethylbicyclo[2.2.1]hept-2-ene] | – | 2.51 µM | > 50 µM | > 50 µM | > 50 µM | – | –
4 | CCCCCCC(C)(C)c1cc(OC)c(C2=C[C@@H]3CC[C@@]2(C)C3(C)C)c(OC)c1 [HU-908, (1S,4S)-2-(2,6-dimethoxy-4-(2-methyloctan-2-yl)phenyl)-1,7,7-trimethylbicyclo[2.2.1]hept-2-ene] | – | > 50 µM | > 50 µM | > 50 µM | > 50 µM | – | –
5 | CCCCCCC(C)(C)c1cc(OC)c(C2=C[C@H]3CC[C@]2(C(=O)OC)C3(C)C)c(OC)c1 [HU-912, (1S,4R)-methyl-2-(2,6-dimethoxy-4-(2-methyloctan-2-yl)phenyl)-7,7-dimethylbicyclo[2.2.1]hept-2-ene-1-carboxylate] | – | 0.0771 µM | 0.239 µM | 3.37 µM | > 10 µM | – | Emax ([3]; CHO; read-out: cAMP Assay CB2 Receptor Emax): 107 ± 4%; Emax ([4]; CHO, percentage of maximal response of HU-210, mean ± SEM, read-out: cAMP Assay CB1 Receptor Emax): 112 ± 8%
6 | CCCCCCC(C)(C)c1cc(OC)c(C2=C[C@]3(C)CC[C@H]2C3(C)C)c(OC)c1 [HU-917, (1S,4S)-3-(2,6-dimethoxy-4-(2-methyloctan-2-yl)phenyl)-1,7,7-trimethylbicyclo[2.2.1]hept-2-ene] | – | > 50 µM | > 50 µM | > 50 µM | > 50 µM | – | –
7 | CCCCCCC(C)(C)c1cc(OC)c(C2=C[C@@]3(C)CC[C@@H]2C3(C)C)c(OC)c1 [HU-918, (1R,4R)-3-(2,6-dimethoxy-4-(2-methyloctan-2-yl)phenyl)-1,7,7-trimethylbicyclo[2.2.1]hept-2-ene] | – | > 50 µM | > 50 µM | > 50 µM | > 50 µM | – | –
8 | CCCCCc1cc(OC)c(C2C(=O)[C@]3(C)CC[C@H]2C3(C)C)c(OC)c1 (stereo partly drawn) [HU-936, (1R,4R)-3-(2,6-dimethoxy-4-pentylphenyl)-1,7,7-trimethylbicyclo[2.2.1]heptan-2-one] | – | 1.72 µM | > 50 µM | > 50 µM | > 50 µM | – | –
9 | CCCCCc1cc(OC)c(C2C(O)[C@]3(C)CC[C@H]2C3(C)C)c(OC)c1 (stereo partly drawn) [HU-938, (1R,4R)-3-(2,6-dimethoxy-4-pentylphenyl)-1,7,7-trimethylbicyclo[2.2.1]heptan-2-ol] | – | 7.91 µM | > 50 µM | > 50 µM | > 50 µM | – | –
10 | CCCCCc1cc(OC)c(C2=C[C@@H]3CC[C@@]2(CO)C3(C)C)c(OC)c1 [HU-969, (1R,4S)-(2-(2,6-dimethoxy-4-pentylphenyl)-7,7-dimethylbicyclo[2.2.1]hept-2-en-1-yl)methanol] | – | – | – | > 50 µM | > 50 µM | 6.46 µM | IC50 [3]: > 50 µM
11 | CCCCCc1cc(OC)c(C2=C[C@H]3CC[C@]2(CO)C3(C)C)c(OC)c1 [HU-970, (1S,4R)-(2-(2,6-dimethoxy-4-pentylphenyl)-7,7-dimethylbicyclo[2.2.1]hept-2-en-1-yl)methanol] | 38 ± 2% | – | – | > 50 µM | > 50 µM | 1.27 µM | IC50 [3, 11]: 1.15 µM
12 | CCCCCc1cc(OC)c(C2=C[C@@H]3CC[C@@]2(C(=O)OC)C3(C)C)c(OC)c1 [HU-971, (1R,4S)-methyl-2-(2,6-dimethoxy-4-pentylphenyl)-7,7-dimethylbicyclo[2.2.1]hept-2-ene-1-carboxylate] | 31 ± 4% | – | – | > 50 µM | > 50 µM | 0.704 µM | IC50 [3, 11]: 1.53 µM
13 | CCCCCc1cc(OC)c(C2=C[C@H]3CC[C@]2(C(=O)OC)C3(C)C)c(OC)c1 [HU-972, (1S,4R)-methyl-2-(2,6-dimethoxy-4-pentylphenyl)-7,7-dimethylbicyclo[2.2.1]hept-2-ene-1-carboxylate] | 48 ± 5% | – | – | > 50 µM | > 50 µM | 0.168 µM | IC50 [3, 11]: 0.313 µM
14 | CCCCCc1cc(OC)c(C2=C[C@@H]3CC[C@@]2(C(=O)O)C3(C)C)c(OC)c1 [HU-973, (1R,4S)-2-(2,6-dimethoxy-4-pentylphenyl)-7,7-dimethylbicyclo[2.2.1]hept-2-ene-1-carboxylic acid] | 40 ± 6% | – | – | > 50 µM | > 50 µM | 1.15 µM | IC50 [3, 11]: 2.09 µM
15 | CCCCCc1cc(OC)c(C2=C[C@H]3CC[C@]2(C(=O)O)C3(C)C)c(OC)c1 [HU-974, (1S,4R)-2-(2,6-dimethoxy-4-pentylphenyl)-7,7-dimethylbicyclo[2.2.1]hept-2-ene-1-carboxylic acid] | – | – | – | > 50 µM | > 50 µM | > 10 µM | IC50 [3]: > 50 µM
